Like-named read-outs stand apart in the source and are kept apart here.
Assays:
[1] = target: CYP2D6 (Homo sapiens (Human), UniProt P10635); experiment: CYP inhibition test, dextromethorphan O-demethylation; type: in vitro ADME; details: pooled human hepatic microsome, 5 μmol/L dextromethorphan
Text: (§1) Using commercially available pooled human hepatic microsome, and employing, as markers, 7-ethoxyresorufin O-deethylation (CYP1A2), tolbutamide methyl-hydroxylation (CYP2C9), mephenyloin 4′-hydroxylation (CYP2C19), dextromethorphan O-demethylation (CYP2D6), and terfenedine hydroxylation as typical substrate metabolism reactions of human main five CYP enzyme forms (CYP1A2, 2C9, 2C19, 2D6, 3A4), an inhibitory degree of each metabolite production amount by a compound of the present compound was assessed.
(§2) The reaction conditions were as follows: substrate, 0.5 μmol/L ethoxyresorufin (CYP1A2), 100 μmol/L tolbutamide (CYP2C9), 50 μmol/L S-mephenyloin (CYP2C19), 5 μmol/L dextromethorphan (CYP2D6), 1 μmol/L terfenedine (CYP3A4); reaction time, 15 minutes; reaction temperature, 37° C.; enzyme, pooled human hepatic microsome 0.2 mg protein/mL; concentration of a compound of the present invention, 1, 5, 10, 20 μmol/L (four points).
(§3) Each five kinds of substrates, human hepatic microsome, or a compound of the present invention in 50 mM Hepes buffer as a reaction mixture was added to a 96-well plate at the composition as described above, NADPH, as a cofactor was added to initiate metabolism reactions as markers and. After the incubation at 37° C. for 15 minutes, a methanol/acetonitrile=1/1 (v/v) solution was added to stop the reaction. After the centrifugation at 3000 rpm for 15 minutes, resorufin (CYP1A2 metabolite) in the supernatant was quantified by a fluorescent multilabel counter and tolbutamide hydroxide (CYP2C9 metabolite), mephenyloin 4′ hydroxide (CYP2C19 metabolite), dextrorphan (CYP2D6 metabolite), and terfenadine alcohol (CYP3A4 metabolite) were quantified by LC/MS/MS.

[2] = Solubility test (1% DMSO addition, artificial intestinal juice pH 6.8); type: physicochemical; details: fassgf or other biorelevant, kinetic from dmso stock, artificial intestinal juice pH 6.8, 16 hours at 25° C.
Description: A 10 mmol/L solution of the compound of the present invention is prepared with DMSO, and 6 μL of the compound solution is added to 594 μL of an artificial intestinal juice (water and 118 mL of 0.2 mol/L NaOH reagent are added to 250 mL of 0.2 mol/L potassium dihydrogen phosphate reagent to reach 1000 mL) with a pH of 6.8. The mixture is left standing for 16 hours at 25° C., and the mixture is vacuum-filtered. The filtrate is two-fold diluted with methanol/water=1/1 (V/V), and the compound concentration in the filtrate is measured with HPLC or LC/MS/MS by the absolute calibration method.

[3] = target: Human DP1 receptor (Homo sapiens (Human), UniProt Q13258); experiment: Human DP1 inhibitory activity in DP1-expressing cell (PGD2-induced cAMP); type: cell-based; details: category of cAMP IC50, human DP1 receptor expressing Jurkut cell
Description: Compounds were categorized as AA (cAMP is less than 100 nM) and A (cAMP is more than 100 nM and less than 5000 nM) as shown in Table 99 and 100.

[4] = Metabolism stability test; type: in vitro ADME; details: human liver microsomes, 30 minutes, 37° C., NADPH, 0.5 μmol/L of the compound
Description: Using a commercially available pooled human hepatic microsomes, a compound of the present invention was reacted for a constant time, a remaining rate was calculated by comparing a reacted sample and an unreacted sample, thereby, a degree of metabolism in liver was assessed.
A reaction was performed (oxidative reaction) at 37° C. for 0 minute or 30 minutes in the presence of 1 mmol/L NADPH in 0.2 mL of a buffer (50 mmol/L Tris-HCl pH 7.4, 150 mmol/L potassium chloride, 10 mmol/L magnesium chloride) containing 0.5 mg protein/mL of human liver microsomes. After the reaction, 50 μL of the reaction mixture was added to 100 μL of a methanol/acetonitrile=1/1 (v/v), mixed and centrifuged at 3000 rpm for 15 minutes. The compound of the present invention in the supernatant was quantified by LC/MS/MS, and a remaining amount of the compound of the present invention after the reaction was calculated, letting a compound amount at 0 minute reaction time to be 100%. Glucuronidation reaction was in the presence of 5 mM UDP-glucuronic acid in place of NADPH, followed by similar operations.

[5] = target: CYP2C19 (Homo sapiens (Human), UniProt P33261); experiment: CYP inhibition test, mephenyloin 4'-hydroxylation; type: in vitro ADME; details: pooled human hepatic microsome, 50 μmol/L S-mephenyloin
Text: as §1, §2, §3

[6] = target: CYP2C9 (Homo sapiens (Human), UniProt P11712); experiment: CYP inhibition test, tolbutamide methyl-hydroxylation; type: in vitro ADME; details: pooled human hepatic microsome, 100 μmol/L tolbutamide
Text: as §1, §2, §3

[7] = target: T1, CRTH2 (Homo sapiens (Human), UniProt Q9Y5Y4); experiment: CRTH2 receptor binding inhibitory activity ([3H]-PGD2 displacement, membranes of CRTH2-expressing K562 cell); details: [3H]-PGD2 displacement, membrane of CRTH2-expressing K562 cell, read-out: Ki
Outline: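 Incubation ran 60 min at room temperature using 20 μg/well membrane from CRTH2-expressing K562 cells in pH 7.4 Tris/HCl (50 mM) with 10 mM MgCl2.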

[8] = target: CYP3A4 (Homo sapiens (Human), UniProt P08684); experiment: CYP inhibition test, terfenedine hydroxylation; type: in vitro ADME; details: pooled human hepatic microsome, 1 μmol/L terfenedine
Text: as §1, §2, §3

[9] = target: T1, CRTH2; experiment: CRTH2 inhibitory activity in CRTH2-expressing cells (PGD2-induced intracellular calcium increase, K562); type: cell-based; details: 200 nM PGD2, read-out: IC50, inhibition of intracellular calcium concentration increase induced by PGD2
Description: CRTH2 inhibitory activities of compounds were determined as inhibition activity of intra-cellular calcium concentration increase induced by PGD2 in CRTH2-expressing cells.
CRTH2-expressing K562 cells were suspended at concentration of 2×10^6 cells/ml in buffer (10 mM HEPES, pH 7.4, 0.1% Bovine serum albumin). Cells were incubated with […] (4 μM) for 30 min at room temperature. Cells were washed, resuspended and mixed with various concentration of compounds of the present invention. After 2 min, cells were treated with 200 nM of PGD2. Then intracellular calcium concentration was measured using intracellular ion analyzer (FDSS3000). Inhibition ratio was defined by comparing intracellular calcium concentration increase with and without compound, and IC50 for each compound was calculated from inhibitory curve.

[10] = target: CYP1A2 (Homo sapiens (Human), UniProt P05177); experiment: CYP inhibition test, 7-ethoxyresorufin O-deethylation; type: in vitro ADME; details: pooled human hepatic microsome, 0.5 μmol/L ethoxyresorufin
Text: as §1, §2, §3

[11] = target: CYP3A4 enzyme expressed in Escherichia coli (Homo sapiens (Human), UniProt P08684); experiment: CYP3A4 fluorescent MBI test; type: in vitro ADME; details: pre-reaction time 0 or 30 minutes, substrate 7-BFC; read-out: CYP3A4 MBI, difference between IC50 values with and without preincubation
Description: The CYP3A4 fluorescent MBI test is a test of investigating enhancement of CYP3A4 inhibition of a compound by a metabolism reaction, and the test was performed using, as CYP3A4 enzyme expressed in Escherichia coli and employing, as an index, a reaction in which 7-benzyloxytrifluoromethylcoumarin (7-BFC) is debenzylated by the CYP3A4 enzyme to produce a metabolite, 7-hydroxytrifluoromethylcoumarin (HFC) emitting fluorescent light.
The reaction conditions were as follows: substrate, 5.6 μmol/L 7-BFC; pre-reaction time, 0 or 30 minutes; reaction time, 15 minutes; reaction temperature, 25° C. (room temperature); CYP3A4 content (expressed in Escherichia coli), at pre-reaction […], at reaction […] (at 10-fold dilution); concentration of a compound of the present, 0.625, 1.25, 2.5, 5, 10, 20 μmol/L (six points).
An enzyme in a K-Pi buffer (pH 7.4) and a compound solution of the present invention as a pre-reaction mixture were added to a 96-well plate at the composition of the pre-reaction, a part of it was transferred to another 96-well plate so that it was 1/10 diluted by a substrate in a K-Pi buffer, NADPH as a co-factor was added to initiate a reaction as an index (without preincubation) and, after a predetermined time of a reaction, acetonitrile/0.5 mol/L Tris(trishydroxyaminomethane)=4/1 (V/V) was added to stop the reaction. In addition, NADPH was added to a remaining preincubation solution to initiate a preincubation (with preincubation) and, after a predetermined time of a preincubation, a part was transferred to another plate so that it was 1/10 diluted with a substrate and a K-Pi buffer to initiate a reaction as an index. After a predetermined time of a reaction, acetonitrile/0.5 mol/L Tris(trishydroxyaminomethane)=4/1 (V/V) was added to stop the reaction. For the plate on which each index reaction had been performed, a fluorescent value of 7-HFC which is a metabolite was measured with a fluorescent plate reader. (Ex=420 nm, Em=535 nm).

[12] = CRTH2 receptor binding, categorized AAAA/AAA

T1 sequence (Q9Y5Y4 whole entry): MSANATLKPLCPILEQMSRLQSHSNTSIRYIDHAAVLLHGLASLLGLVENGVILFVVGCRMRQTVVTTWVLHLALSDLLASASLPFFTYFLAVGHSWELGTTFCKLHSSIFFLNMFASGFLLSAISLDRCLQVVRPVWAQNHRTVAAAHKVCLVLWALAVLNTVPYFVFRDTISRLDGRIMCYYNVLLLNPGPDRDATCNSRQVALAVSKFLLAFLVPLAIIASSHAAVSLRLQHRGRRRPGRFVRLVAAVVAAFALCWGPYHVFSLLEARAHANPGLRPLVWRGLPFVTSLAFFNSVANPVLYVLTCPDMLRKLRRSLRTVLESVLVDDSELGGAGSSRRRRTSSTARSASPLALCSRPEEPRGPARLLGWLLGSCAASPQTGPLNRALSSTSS
CYP2C19, sequence (P33261 whole entry): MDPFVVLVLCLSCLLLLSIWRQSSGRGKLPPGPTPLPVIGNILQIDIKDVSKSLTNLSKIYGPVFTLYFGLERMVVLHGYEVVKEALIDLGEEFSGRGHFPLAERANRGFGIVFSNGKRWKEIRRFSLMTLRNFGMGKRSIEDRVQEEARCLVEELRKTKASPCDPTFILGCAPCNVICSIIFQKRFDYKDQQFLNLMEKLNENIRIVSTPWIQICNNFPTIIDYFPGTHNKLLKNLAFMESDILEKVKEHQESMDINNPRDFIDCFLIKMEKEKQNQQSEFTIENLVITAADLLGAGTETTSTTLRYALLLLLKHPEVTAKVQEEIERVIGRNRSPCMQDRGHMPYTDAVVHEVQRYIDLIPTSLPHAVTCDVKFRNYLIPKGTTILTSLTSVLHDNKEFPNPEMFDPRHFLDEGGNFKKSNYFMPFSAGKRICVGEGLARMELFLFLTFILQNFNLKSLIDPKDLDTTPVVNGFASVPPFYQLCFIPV
Human DP1 receptor, sequence (Q13258 whole entry): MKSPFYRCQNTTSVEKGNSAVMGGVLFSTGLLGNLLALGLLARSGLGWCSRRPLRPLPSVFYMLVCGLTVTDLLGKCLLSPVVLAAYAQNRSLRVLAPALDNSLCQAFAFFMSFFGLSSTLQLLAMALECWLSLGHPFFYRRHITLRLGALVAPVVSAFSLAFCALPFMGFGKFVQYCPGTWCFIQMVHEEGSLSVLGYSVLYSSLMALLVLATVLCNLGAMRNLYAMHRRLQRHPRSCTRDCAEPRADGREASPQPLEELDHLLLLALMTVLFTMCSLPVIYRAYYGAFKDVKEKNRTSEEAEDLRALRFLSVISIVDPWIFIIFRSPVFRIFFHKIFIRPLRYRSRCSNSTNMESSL
CYP3A4, sequence (P08684 whole entry): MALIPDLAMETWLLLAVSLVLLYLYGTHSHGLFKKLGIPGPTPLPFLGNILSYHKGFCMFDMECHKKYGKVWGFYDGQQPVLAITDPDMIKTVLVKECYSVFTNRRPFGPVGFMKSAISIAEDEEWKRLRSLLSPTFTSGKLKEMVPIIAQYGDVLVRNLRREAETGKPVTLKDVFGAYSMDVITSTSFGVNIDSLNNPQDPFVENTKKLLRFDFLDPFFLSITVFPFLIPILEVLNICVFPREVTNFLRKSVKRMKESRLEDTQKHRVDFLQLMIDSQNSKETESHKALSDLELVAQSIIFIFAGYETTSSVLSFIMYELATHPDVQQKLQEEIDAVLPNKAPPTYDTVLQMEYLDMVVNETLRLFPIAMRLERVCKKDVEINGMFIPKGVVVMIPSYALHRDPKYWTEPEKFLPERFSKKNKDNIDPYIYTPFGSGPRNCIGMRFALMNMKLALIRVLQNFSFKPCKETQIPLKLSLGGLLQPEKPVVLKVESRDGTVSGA
CYP2C9, sequence (P11712 whole entry): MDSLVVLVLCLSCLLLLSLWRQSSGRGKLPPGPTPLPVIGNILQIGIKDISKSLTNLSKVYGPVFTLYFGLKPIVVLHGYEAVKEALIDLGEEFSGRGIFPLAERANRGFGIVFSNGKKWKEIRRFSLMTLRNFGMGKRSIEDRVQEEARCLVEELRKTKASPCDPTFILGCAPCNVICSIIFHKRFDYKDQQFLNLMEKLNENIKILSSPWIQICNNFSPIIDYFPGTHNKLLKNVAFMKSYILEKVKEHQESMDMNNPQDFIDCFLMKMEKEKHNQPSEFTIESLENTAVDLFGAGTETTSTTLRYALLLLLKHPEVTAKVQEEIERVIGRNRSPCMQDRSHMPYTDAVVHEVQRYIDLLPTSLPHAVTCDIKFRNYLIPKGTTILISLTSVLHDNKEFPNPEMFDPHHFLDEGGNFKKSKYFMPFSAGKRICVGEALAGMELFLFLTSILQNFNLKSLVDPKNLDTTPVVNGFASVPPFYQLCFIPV
CYP2D6, sequence (P10635 whole entry): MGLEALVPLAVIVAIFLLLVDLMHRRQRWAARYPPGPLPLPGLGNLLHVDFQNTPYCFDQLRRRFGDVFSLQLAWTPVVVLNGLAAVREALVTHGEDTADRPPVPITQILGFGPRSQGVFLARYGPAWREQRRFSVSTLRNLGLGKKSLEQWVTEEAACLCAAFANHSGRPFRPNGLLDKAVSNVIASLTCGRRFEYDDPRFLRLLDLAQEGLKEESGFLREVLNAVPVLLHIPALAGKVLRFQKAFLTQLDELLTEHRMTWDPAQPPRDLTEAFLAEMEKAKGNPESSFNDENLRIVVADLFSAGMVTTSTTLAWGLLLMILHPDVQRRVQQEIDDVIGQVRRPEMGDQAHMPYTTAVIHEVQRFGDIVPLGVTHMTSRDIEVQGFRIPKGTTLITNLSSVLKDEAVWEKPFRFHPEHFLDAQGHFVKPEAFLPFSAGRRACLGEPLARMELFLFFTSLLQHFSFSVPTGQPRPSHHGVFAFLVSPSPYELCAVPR
CYP1A2, sequence (P05177 whole entry): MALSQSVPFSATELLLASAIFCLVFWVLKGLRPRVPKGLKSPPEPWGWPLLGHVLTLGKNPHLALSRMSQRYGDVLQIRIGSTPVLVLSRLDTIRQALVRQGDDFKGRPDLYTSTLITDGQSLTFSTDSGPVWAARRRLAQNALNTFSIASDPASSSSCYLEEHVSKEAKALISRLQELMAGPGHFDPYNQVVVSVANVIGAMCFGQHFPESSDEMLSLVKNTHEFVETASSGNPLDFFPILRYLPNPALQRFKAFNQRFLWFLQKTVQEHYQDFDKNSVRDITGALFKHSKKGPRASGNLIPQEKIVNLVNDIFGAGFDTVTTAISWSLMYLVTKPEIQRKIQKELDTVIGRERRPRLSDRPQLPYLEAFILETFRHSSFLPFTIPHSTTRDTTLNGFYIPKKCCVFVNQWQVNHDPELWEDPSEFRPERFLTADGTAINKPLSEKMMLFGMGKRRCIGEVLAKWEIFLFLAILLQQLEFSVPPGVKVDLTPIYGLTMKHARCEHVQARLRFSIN
CYP3A4 enzyme expressed in Escherichia coli, sequence (P08684 whole entry): as the sequence (P08684 whole entry) above

SMILES	IC50 [1] [µM]	solubility at 16 h [2] [µM]	IC50 [3] [µM]	remaining rate after reaction (result heading prints '% inhibition') [4] [%]	IC50 [5] [µM]	IC50 [6] [µM]	Ki [7, 12] [µM]	Ki [7] [µM]	IC50 [8] [µM]	IC50 [9] [µM]	IC50 [10] [µM]	difference in IC50 with vs without preincubation [11] [µM]
C[C@@H]1CN(S(=O)(=O)c2ccc(Cl)cc2)C[C@@H]1n1nc(CC(=O)O)c2ccc(F)cc21 [Compound I-49]	> 20	> 50	0.1 to 5	94.7	> 20	> 20	< 0.1	0.00059	> 20	0.086	> 20	–
CC(C)Oc1ccc(S(=O)(=O)N2C[C@H](n3nc(CC(=O)O)c4ccc(F)cc43)C[C@H]2CO)cc1 [Compound I-9]	> 20	> 50	0.1 to 5	98.7	> 20	> 20	< 0.1	0.0062	> 20	–	> 20	≤ 3
CC(C)Oc1ccc(S(=O)(=O)N2C[C@@H](N3CCCC3)[C@@H](n3nc(CC(=O)O)c4ccc(F)cc43)C2)cc1 [Compound I-47]	–	–	0.1 to 5	91.8	–	–	< 0.1	0.016	–	–	–	–
CC(C)Oc1ccc(S(=O)(=O)N2CC[C@H](n3nc(CC(=O)O)c4ccc(F)cc43)[C@@H](C)C2)cc1 [Compound I-74]	> 20	> 50	< 0.1	–	> 20	> 20	0.1 to 5	0.68	> 20	–	> 20	–
CC(C)Oc1ccc(S(=O)(=O)N2CC[C@H](n3nc(CC(=O)O)c4ccc(F)cc43)[C@H](C)C2)cc1 [Compound I-75]	–	–	< 0.1	99.2	–	–	0.1 to 5	–	–	–	–	≤ 3
